Data from US20070254859A1 (priority 2006, published 2007).

Key:
[1] = in vivo; details: male, Wistar-Hannover, rat, plasma, po, 12 mg/kg
Description: Male, Wistar-Hannover rats (257-313 g) were used; animals were cannulated in the jugular vein for blood sampling. Animals were individually housed at 18-26° C. with 30-70% humidity. Animals were allowed free movement and access to water with 12 h dark and light cycles. Dosing was 2-4 h after the beginning of a light cycle and dosing time across each group was consistent. All animals had access to water, ad libitum, and were fasted 8 h prior to dosing; food was returned 5 h post-dose. Animals were dosed using a 1 mL syringe. Group 1, the intravenous group (raloxifene, 2.5 mg/kg), was dosed using an infusion rate of ˜0.3 mL per minute.
Sampling—using an AccuSampler®, blood samples (˜120 μL) were collected from 4 animals/group/time point from a catheter inserted into the jugular vein. Blood samples were taken and removed blood volume was replaced by an equivalent volume of intraperitoneal saline after each draw. Blood samples were centrifuged and plasma transferred into a designated well of a 96-well plate. Samples were kept frozen (−80±10° C.) until sample preparation and HPLC/MS/MS analysis.
Internal standard (IS) solution was prepared in a 500 mL volumetric flask containing 1:1 v/v acetonitrile:methanol and ˜0.04 μM of saquinavir base. Individually, the 96-well plates were removed from the freezer (−80±10° C.) and allowed to warm to ambient temperature (˜45-50 min). The in vivo plasma samples, either 25 or 50 μL, were transferred into separate 1.5 mL micro-centrifuge tubes. Total plasma volume was brought to ˜100 μL by adding male Wistar-Hannover plasma (potassium EDTA). Subsequently, 200 μL of IS solution was added, capped, mixed (˜5 sec) and centrifuged at 13,200 rpm for 10 mm using an Eppendorf minispin centrifuge. The supernatant (˜250 μL) was transferred into individual wells of a 96-well plate. The 96-well plate was sealed and centrifuged at 3000 rpm for 10 min at 10° C. […] The 96-well plate was then placed into the auto-sampler cool-stack (˜6° C.) and analyzed via LC/MS/MS. Raloxifene, and raloxifene glucuronide standard curves and quality control (QC's) samples were prepared in an analogous way as described above. […] The limit of detection (LOD) for raloxifene was ˜0.2 ng/mL while the glucuronides were ˜0.1 ng/mL.

[2] = tested on: Caco-2 cells; details: compound 30 μM on both sides, Rhodamine 123 10 μM, Bl-Ap direction, Caco-2 monolayers; read from FIG. 2

Row | AUC(0-t) [1] [ng·h/mL] | Cmax [1] [ng/mL] | Tmax [1] [h] | bioavailability [1] [%] | Molecule | RHO in vitro efflux inhibition [2] [%]
1 | 452 | 50 to 60 | ~4 | 3.6 ± 0.8 | O=C(c1ccc(OCCN2CCCCC2)cc1)c1c(-c2ccc(O)cc2)sc2cc(O)ccc12 [raloxifene] | 
2 |  |  |  |  | d-α-tocopheryl polyethylene glycol succinate [TPGS 1000] | ~40
